Measured values published in ChEMBL document CHEMBL1201862, “PubChem BioAssay data set” (2004).
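Cells were grown in 96-well plates and exposed to each compound for 48 hours at five concentrations; endpoints were interpolated linearly between bracketing concentrations, or set to the highest concentration if not reached. The concentration for 50% growth inhibition is given as GI50.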 Activity calls are given as the source filed them. Cut-off read from the data, not from the text of the source: active = GI50 up to about 1.1 µM and inactive = higher.

Tests used:
Assay in all cases: NCI tumour cell line growth inhibition, 48 h
[1] = test system: ACHN
[2] = test system: CCRF-CEM
[3] = test system: COLO 205
[4] = test system: HOP-92
[5] = test system: HT-29
[6] = test system: MDA-MB-231
[7] = test system: NCI-H23
[8] = test system: NCI-H460
[9] = test system: OVCAR-3
[10] = test system: OVCAR-4
[11] = test system: OVCAR-5
[12] = test system: OVCAR-8
[13] = test system: PC-3
[14] = test system: RPMI-8226
[15] = test system: SF-539
[16] = test system: SK-MEL-28
[17] = test system: SN12C
[18] = test system: SNB-75
[19] = test system: T47D
[20] = test system: UACC-62

Row | SMILES | GI50 [1] | GI50 [2] | GI50 [3] | GI50 [4] | GI50 [5] | GI50 [6] | GI50 [7] | GI50 [8] | GI50 [9] | GI50 [10] | GI50 [11] | GI50 [12] | GI50 [13] | GI50 [14] | GI50 [15] | GI50 [16] | GI50 [17] | GI50 [18] | GI50 [19] | GI50 [20]
1 | COc1ccc(/C(Nc2ccccc2)=C(\CCl)c2ccccc2)cc1OC | 31.9 µM (inactive) | 17.3 µM (inactive) | 71.6 µM (inactive) | 37.6 µM (inactive) | 34.9 µM (inactive) | 50.4 µM (inactive) | 45.9 µM (inactive) | 41.8 µM (inactive) | 35.7 µM (inactive) | 35.7 µM (inactive) | > 100 µM (inactive) | 35.2 µM (inactive) | 39.4 µM (inactive) | 21.2 µM (inactive) | > 100 µM (inactive) | 82 µM (inactive) | 36.7 µM (inactive) | 63.2 µM (inactive) | 35.5 µM (inactive) | 99.1 µM (inactive)
2 | COc1ccc(-n2sc3ncccc3c2=O)cc1 | 19.4 µM (inactive) | 8.32 µM (inactive) | 16.9 µM (inactive) | 27.7 µM (inactive) | 20.8 µM (inactive) | 21.7 µM (inactive) | 19.3 µM (inactive) | 34.6 µM (inactive) | 23 µM (inactive) | > 100 µM (inactive) | 24.8 µM (inactive) | 26.8 µM (inactive) | 23.8 µM (inactive) | 28.3 µM (inactive) | 17.3 µM (inactive) | 23.6 µM (inactive) | 38.2 µM (inactive) | 23.6 µM (inactive) | 17.7 µM (inactive) | 36.4 µM (inactive)
3 | CNC1=C/C(=N/C2=CC(=N/C(=C\C#N)C(C)(C)O)/OC2(C)C)OC1(C)C | 4.32 µM (inactive) | 3.08 µM (inactive) | 6.56 µM (inactive) | 11.9 µM (inactive) | 11.4 µM (inactive) | 9.95 µM (inactive) | 33.3 µM (inactive) | 5.97 µM (inactive) | 32.4 µM (inactive) | 27.2 µM (inactive) | 60.4 µM (inactive) | 9.84 µM (inactive) | 13.2 µM (inactive) | 4.43 µM (inactive) | 33.1 µM (inactive) | 33.2 µM (inactive) | 14.5 µM (inactive) | 6.76 µM (inactive) | 6.78 µM (inactive) | 7.91 µM (inactive)
4 | O=c1cc(/N=N\c2ccc(Cl)c(Cl)c2)[nH]c(=O)[nH]1 | 1.62 µM (inactive) | 0.033 µM (active) | 1.81 µM (inactive) | 1.59 µM (inactive) | 1.73 µM (inactive) | 1.85 µM (inactive) | 3.89 µM (inactive) | 2.47 µM (inactive) | 2.36 µM (inactive) | 2.91 µM (inactive) | 4.85 µM (inactive) | 2.21 µM (inactive) | 5.74 µM (inactive) | 2.14 µM (inactive) | 2.61 µM (inactive) | 1.73 µM (inactive) | 2.11 µM (inactive) | 9.62 µM (inactive) | 2.56 µM (inactive) | 2.01 µM (inactive)
5 | O=C(OC[C@H]1C[C@H]2C(=O)CCC[C@H]2O1)c1ccccc1 | > 100 µM (inactive) | > 100 µM (inactive) | > 100 µM (inactive) | > 100 µM (inactive) | > 100 µM (inactive) | > 100 µM (inactive) | > 100 µM (inactive) | > 100 µM (inactive) | > 100 µM (inactive) | > 100 µM (inactive) | > 100 µM (inactive) | > 100 µM (inactive) | > 100 µM (inactive) | > 100 µM (inactive) | > 100 µM (inactive) | > 100 µM (inactive) | > 100 µM (inactive) | > 100 µM (inactive) | > 100 µM (inactive) | > 100 µM (inactive)
6 | CCOC(=O)Nc1ccc2c(c1)N(C(=O)CCN(CC)CC)c1ccccc1S2 [ETHACIZINE] | 29.8 µM (inactive) | 34.3 µM (inactive) | 20.5 µM (inactive) | 18.9 µM (inactive) | 17.3 µM (inactive) | 26.1 µM (inactive) | 31.8 µM (inactive) | 20.1 µM (inactive) | 30 µM (inactive) | 43.6 µM (inactive) | 57.1 µM (inactive) | 25 µM (inactive) | 31.4 µM (inactive) | 17.9 µM (inactive) | 21.1 µM (inactive) | 28.5 µM (inactive) | 28.6 µM (inactive) | 2.09 µM (inactive) | 27.4 µM (inactive) | 21.5 µM (inactive)
7 | CS(=O)(=O)N(CC(=O)O)Cc1ccccc1 | > 100 µM (inactive) | > 100 µM (inactive) | > 100 µM (inactive) | > 100 µM (inactive) | > 100 µM (inactive) | > 100 µM (inactive) | > 100 µM (inactive) | > 100 µM (inactive) | > 100 µM (inactive) | > 100 µM (inactive) | > 100 µM (inactive) | > 100 µM (inactive) | > 100 µM (inactive) | > 100 µM (inactive) | > 100 µM (inactive) | > 100 µM (inactive) | > 100 µM (inactive) | > 100 µM (inactive) | > 100 µM (inactive) | > 100 µM (inactive)
8 | O=C1C(Br)=C(c2ccccc2)O/C1=C/C(=O)c1ccc(Br)cc1 | 38.5 µM (inactive) | 26.3 µM (inactive) | > 100 µM (inactive) | 49.1 µM (inactive) | 36.1 µM (inactive) | 34.8 µM (inactive) | > 100 µM (inactive) | > 100 µM (inactive) | 83.2 µM (inactive) | 66.7 µM (inactive) | > 100 µM (inactive) | 27 µM (inactive) | 14.2 µM (inactive) | 19.1 µM (inactive) | > 100 µM (inactive) | 51.3 µM (inactive) | 8.75 µM (inactive) | > 100 µM (inactive) | 32.9 µM (inactive) | 23.9 µM (inactive)
9 | COc1ccc(/C=C2\CCC(Cc3ccccc3)(CN(C)C)C2=O)cc1 (stereo not given) | 82 µM (inactive) | 27.9 µM (inactive) | 37.8 µM (inactive) | 53.3 µM (inactive) | 32.9 µM (inactive) | 98.9 µM (inactive) | 44 µM (inactive) | 67.3 µM (inactive) | 43.7 µM (inactive) | 56.8 µM (inactive) | > 96.2 µM (inactive) | 41.6 µM (inactive) | 83.9 µM (inactive) | 22.2 µM (inactive) | 57 µM (inactive) | > 72.9 µM (inactive) | 61.2 µM (inactive) | 94.2 µM (inactive) | 46.7 µM (inactive) | 36.9 µM (inactive)
10 | C=C1C(O)C2OC(=O)C(=C)C2C(OC(=O)/C(C)=C/C)CC2(C)OC2C2OC12 (stereo not given) | 3.69 µM (inactive) | 12.6 µM (inactive) | 7.1 µM (inactive) | 19.4 µM (inactive) | 5.47 µM (inactive) | 8.36 µM (inactive) | 8.28 µM (inactive) | 3.78 µM (inactive) | 6.28 µM (inactive) | 2.71 µM (inactive) | 5.89 µM (inactive) | 6.11 µM (inactive) | 15.3 µM (inactive) | 2.58 µM (inactive) | 6.85 µM (inactive) | 20.4 µM (inactive) | 2.82 µM (inactive) | 10.4 µM (inactive) | 14.3 µM (inactive) | 15.3 µM (inactive)
11 | S=C(/N=C1/NCC(CN2CCN(c3ccccc3)CC2)O1)Nc1ccccc1 (stereo not given) | > 100 µM (inactive) | 30.5 µM (inactive) | 28.6 µM (inactive) | 92.3 µM (inactive) | 42.2 µM (inactive) | 35.9 µM (inactive) | 29.3 µM (inactive) | 23.3 µM (inactive) | 52.2 µM (inactive) | 49.3 µM (inactive) | > 100 µM (inactive) | > 100 µM (inactive) | 39.9 µM (inactive) | 42.3 µM (inactive) | 34.4 µM (inactive) | > 100 µM (inactive) | > 100 µM (inactive) | > 100 µM (inactive) | 29.7 µM (inactive) | 39.7 µM (inactive)
12 | COc1cc2nc3n(c2cc1OC)C(O)c1c(Cl)nc(SC)nc1S3 (stereo not given) | 3.3 µM (inactive) | 1.17 µM (inactive) | 4.78 µM (inactive) | 12.2 µM (inactive) | 3.22 µM (inactive) | 4.42 µM (inactive) | 4.21 µM (inactive) | 3.44 µM (inactive) | 3.12 µM (inactive) | 5.77 µM (inactive) | 16.6 µM (inactive) | 2.59 µM (inactive) | 2.75 µM (inactive) | 2.16 µM (inactive) | 2.4 µM (inactive) | 6.19 µM (inactive) | 3.86 µM (inactive) | 4.47 µM (inactive) | 3.8 µM (inactive) | 2.19 µM (inactive)
13 | COc1ccc(-n2c(Cn3nnc(-c4cccnc4)n3)nn(C3OC(COC(=O)c4ccccc4)C(OC(=O)c4ccccc4)C3OC(=O)c3ccccc3)c2=S)cc1 (stereo not given) | > 100 µM (inactive) | > 100 µM (inactive) | > 100 µM (inactive) | > 100 µM (inactive) | 50.9 µM (inactive) | 49 µM (inactive) | > 100 µM (inactive) | > 100 µM (inactive) | > 100 µM (inactive) | > 100 µM (inactive) | > 100 µM (inactive) | > 100 µM (inactive) | > 100 µM (inactive) | > 100 µM (inactive) | > 100 µM (inactive) | > 100 µM (inactive) | > 100 µM (inactive) | > 100 µM (inactive) | > 100 µM (inactive) | > 100 µM (inactive)
14 | CCOc1cc(C2SCC(=O)N2c2ccc(Oc3ccc(Cl)cc3)c(Cl)c2)ccc1O (stereo not given) | 17.4 µM (inactive) | 13.7 µM (inactive) | 22.5 µM (inactive) | 18.6 µM (inactive) | 17.1 µM (inactive) | 19.3 µM (inactive) | 17 µM (inactive) | 19.2 µM (inactive) | 14 µM (inactive) | 16 µM (inactive) | 20.2 µM (inactive) | 17.7 µM (inactive) | 16.6 µM (inactive) | 14.7 µM (inactive) | 16.1 µM (inactive) | 20 µM (inactive) | 33 µM (inactive) | 21.2 µM (inactive) | 14.2 µM (inactive) | 16.4 µM (inactive)
